Source: US8242160B2, “Inhibitors of ubiquitin E1” (The United States of America, as represented by the …, priority 2005, dated 2012)

Legend:
Format in all cases: cell-based
[1] = tested on: MEFs (mouse embryonic fibroblasts) that express wild type p53; experiment: Killing of MEFs that express wild type p53
Excerpt: (§1) While p53 induces apoptotic cell death in many tumor cells, it generally only induces growth arrest in untransformed cells. This has been the rationale for many studies targeting the p53 system.

U2O cells = experiment: Proteasome inhibitor-induced accumulation of ubiquitylated proteins; conditions: 50 μM with ALLN 50 μM, four hours
E1 = biological target: T1, E1 (Homo sapiens, UniProt P22314); experiment: Loading of E1 with ubiquitin in cells, anti-E1 immunoblot; conditions: 50 μM, 1 hour
T1 construct: endogenous in cells; host or cells: RPE cells
T1 sequence (P22314 1-1058): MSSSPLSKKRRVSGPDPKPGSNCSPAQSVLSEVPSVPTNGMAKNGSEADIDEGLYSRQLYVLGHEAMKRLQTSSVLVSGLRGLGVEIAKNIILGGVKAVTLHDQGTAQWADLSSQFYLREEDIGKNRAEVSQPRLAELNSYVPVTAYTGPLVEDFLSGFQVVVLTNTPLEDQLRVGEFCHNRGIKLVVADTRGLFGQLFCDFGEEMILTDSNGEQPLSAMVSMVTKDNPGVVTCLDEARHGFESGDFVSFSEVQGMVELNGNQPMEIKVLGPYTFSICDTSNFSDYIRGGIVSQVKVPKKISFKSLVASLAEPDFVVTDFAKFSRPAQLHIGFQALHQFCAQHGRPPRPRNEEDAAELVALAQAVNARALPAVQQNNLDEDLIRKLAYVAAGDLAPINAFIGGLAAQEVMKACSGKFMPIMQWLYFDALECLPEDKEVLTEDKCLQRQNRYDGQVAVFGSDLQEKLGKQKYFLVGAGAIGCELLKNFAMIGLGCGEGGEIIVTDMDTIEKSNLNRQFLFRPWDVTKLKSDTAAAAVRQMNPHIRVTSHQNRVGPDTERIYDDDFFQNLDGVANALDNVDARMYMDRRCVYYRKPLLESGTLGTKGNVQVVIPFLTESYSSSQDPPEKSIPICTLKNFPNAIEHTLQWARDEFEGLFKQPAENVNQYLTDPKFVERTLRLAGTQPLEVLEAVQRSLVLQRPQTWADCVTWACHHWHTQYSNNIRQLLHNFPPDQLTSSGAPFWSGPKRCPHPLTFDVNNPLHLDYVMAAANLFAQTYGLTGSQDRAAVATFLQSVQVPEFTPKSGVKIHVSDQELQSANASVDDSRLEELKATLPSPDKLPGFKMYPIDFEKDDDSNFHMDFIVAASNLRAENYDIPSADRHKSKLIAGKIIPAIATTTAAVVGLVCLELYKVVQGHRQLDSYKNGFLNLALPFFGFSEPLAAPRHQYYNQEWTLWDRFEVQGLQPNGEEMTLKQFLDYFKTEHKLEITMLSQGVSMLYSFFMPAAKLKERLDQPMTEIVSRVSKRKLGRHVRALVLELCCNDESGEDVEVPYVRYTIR
Experimental: RPE cells were treated with the E1 inhibitor of 4-[4-(5-nitro-furan-2-ylmethylene)-3,5-dioxo-pyrazolidin-1-yl]-benzoic acid methyl acid (designated as EI-41, 50 μM), HLI98C (50 μM) or iodoacetamide […] for 1 hour followed by lysis, SDS-PAGE under either non-reducing (FIG. 7A) or reducing (FIG. 7B) conditions and immunoblotting with anti-E1. Results are shown in FIGS. 7A and 7B, where the EI-41 compound is shown to inhibit the loading of EI with ubiquitin.

[2] = tested on: untransformed retinal pigment epithelial cells; experiment: Growth of untransformed RPE cells, MTT assay
Excerpt: FIG. 6A depicts the induction of growth arrest in untransformed RPE cells by 4-[4-(5-nitro-furan-2-ylmethylene)-3,5-dioxo-pyrazolidin-1-yl]-benzoic acid methyl […], as measured by MTT assay.
as §1

COC(=O)c1ccc(N2NC(=O)/C(=C/c3ccc([N+](=O)[O-])o3)C2=O)cc1 [E1-41, 4-[4-(5-nitro-furan-2-ylmethylene)-3,5-dioxo-pyrazolidin-1-yl]-benzoic acid methyl acid]
killing of MEFs expressing wild type p53 [1]: only kills MEFs
accumulation of ubiquitylated proteins in proteasome inhibitor-treated cells (U2O cells): inhibit the accumulation of ubiquiylated proteins
E1-Ub thiol-ester formation in RPE cells (E1): inhibit E1-Ub thiol-ester formation
effect on growth of untransformed retinal pigment epithelial cells [2]: causes growth arrest
